From patent US8889709B2, “Use of isoQC inhibitors in the treatment and prevention of inflammatory diseases or conditions” (Probiodrug AG, priority 2006, dated 2014)
Read-outs that look alike come from different tables or passages of the source. Peptide text beside a SMILES is read from it.

How the values were obtained:
[1] = target: T1, human isoQC (Homo sapiens, UniProt Q9NXS2); experiment: Kinetic evaluation of peptide substrates of human isoQC; assay type: biochemical; design: The cDNA of the mature human isoQC starting with codon 30 (counting from methionine II); His6 (C-His) (C); yeast alpha-factor secretion signal (YSS) (N); made in house; host or cells: Pichia pastoris X-33; settings: human isoQC expressed in E. coli BL21 (hisoQCdt)
Experimental: (§1) Excitation/emission wavelengths were 320/410 nm.
(§2) Excitation/emission wavelengths were 380/460 nm.
(§3) Kinetic data were evaluated using GraFit software.
Target sequence in this assay (Q9NXS2 48-382): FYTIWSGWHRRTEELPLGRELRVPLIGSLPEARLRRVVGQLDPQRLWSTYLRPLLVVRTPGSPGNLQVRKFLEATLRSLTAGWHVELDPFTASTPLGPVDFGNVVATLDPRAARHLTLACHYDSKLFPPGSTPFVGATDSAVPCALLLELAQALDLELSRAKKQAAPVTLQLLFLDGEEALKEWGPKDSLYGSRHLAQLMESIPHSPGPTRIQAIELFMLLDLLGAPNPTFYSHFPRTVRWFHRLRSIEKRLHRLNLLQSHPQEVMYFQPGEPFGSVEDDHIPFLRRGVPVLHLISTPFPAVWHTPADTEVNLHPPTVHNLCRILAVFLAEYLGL

[2] = target: T2, human isoQC (Homo sapiens, UniProt Q9NXS2, C369A/I73N); experiment: as above; assay type: biochemical; design: The cDNA of the mature human isoQC starting with codon 30 (counting from methionine II); His6 (C-His) (C); yeast alpha-factor secretion signal (YSS) (N); made in house; host or cells: Pichia pastoris X-33; settings: human isoQC expressed in P. pastoris (YSShisoQC)
Experimental: as §1, §2, §3

[3] = target: T3, mouse-isoQC (Mus musculus, UniProt Q8BH73, I74N); experiment: Kinetic parameters of conversion of peptide substrates by murine isoQC; assay type: biochemical; design: starting with codon 43 (Glu 43) of the open reading frame (counting from methionine II); yeast alpha-factor secretion signal (N); made in house; host or cells: Pichia pastoris X-33
Experimental: as §1, §2, §3

[4] = target: T3, mouse-isoQC; experiment: Inactivation/reactivation of mouse-isoQC by chelators and metal ions; settings: for reactivation of mouse-isoQC apoenzyme: metal added after removal of the chelator
Experimental: The final dialysis was performed for 5 h. All buffers were prepared in metal-free polystyrene containers. Subsequently, the apoenzyme was centrifuged at 20.000×g for 1 h at 4° C., and the protein concentration was determined by UV absorbance.

[5] = target: T2, human isoQC; experiment: Inhibitor assay, human isoQC (Ki/IC50, competitive inhibition)
Experimental: (§4) All measurements were performed with a NovoStar reader for microplates (BMG Labtechnologies) at 30° C. […] Excitation/emission wavelengths were 320/410 nm.

[6] = target: T1, human isoQC; experiment: Inactivation of human isoQC by heterocyclic chelators; assay type: biochemical
Target sequence in this assay (Q9NXS2 whole entry): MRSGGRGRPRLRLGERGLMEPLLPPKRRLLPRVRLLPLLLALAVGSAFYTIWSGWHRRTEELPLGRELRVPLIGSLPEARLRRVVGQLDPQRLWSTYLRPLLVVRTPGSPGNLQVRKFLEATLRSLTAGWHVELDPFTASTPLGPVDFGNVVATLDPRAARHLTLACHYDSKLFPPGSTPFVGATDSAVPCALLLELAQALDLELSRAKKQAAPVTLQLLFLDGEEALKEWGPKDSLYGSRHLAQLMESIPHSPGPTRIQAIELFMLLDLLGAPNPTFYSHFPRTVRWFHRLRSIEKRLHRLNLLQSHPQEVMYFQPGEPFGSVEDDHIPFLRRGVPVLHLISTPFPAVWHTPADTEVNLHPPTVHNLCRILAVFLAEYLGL

[7] = target: human QC (Homo sapiens, UniProt Q16769); experiment: Inhibitor assay, human QC (Ki/IC50, competitive inhibition)
Experimental: as §4

[8] = target: T1, human isoQC; experiment: Inhibitor assay, human isoQC (Ki/IC50, competitive inhibition)
Experimental: as §4

[9] = system: Thioglycollate-induced peritonitis in C57/Bl6J mice; experiment: Thioglycollate-induced peritonitis in C57/Bl6J wild type mice; assay type: in vivo, mouse
Experimental: C57/Bl6J mice were purchased from Charles River Laboratories (Kisslegg, Germany). For each experiment, the mice were age- and sex-matched. An intraperitoneal injection of 25 ml/kg body weight of sterile 8% (w/v) thioglycollate (Sigma-Aldrich) was used to induce peritonitis. 30 min before the thioglycollate-stimulus, animals were injected with different doses of isoQC-inhibitor isoQC-I. For lavage of the peritoneum, the animals were anesthetized using 2% isofluran. The peritoneal exudates were collected by washing the peritoneum with 8 ml of sterile PBS 4 h after thioglycollate injection. Cells of 1 ml lavage fluid were collected by centrifugation (300 g, 10 min) and stained according to the manufacturer's instructions for BD Trucount tubes (BD Trucount tubes; catalog no. 340334; BD Biosciences, Heidelberg, Germany). Cells were blocked with CD16/32 (Caltag) at 4° C. for 15 min. and stained with 7/4-FITC (Serotec, Dusseldorf, Germany)/Ly6G-PE (Miltenyi, Bergisch Gladbach, Germany) as well as IgG1-PE (BD)/IgG2a-FITC (Miltenyi) as isotype controls at room temperature for 15 min. After staining, erythrocytes were lysed with BD FACSLyse (BD) in the dark at room temperature for 15 min. After washing with PBS, flow cytometric analysis was performed on a BD FACSCalibur (BD) based on 5000 beads per sample as reference standard.

[10] = system: human isoQC; experiment: Inhibitor assay, human isoQC (Ki/IC50, competitive inhibition); settings: isoQC vs human QC
Experimental: as §4

T3 sequence (Q8BH73 61-383 I74N): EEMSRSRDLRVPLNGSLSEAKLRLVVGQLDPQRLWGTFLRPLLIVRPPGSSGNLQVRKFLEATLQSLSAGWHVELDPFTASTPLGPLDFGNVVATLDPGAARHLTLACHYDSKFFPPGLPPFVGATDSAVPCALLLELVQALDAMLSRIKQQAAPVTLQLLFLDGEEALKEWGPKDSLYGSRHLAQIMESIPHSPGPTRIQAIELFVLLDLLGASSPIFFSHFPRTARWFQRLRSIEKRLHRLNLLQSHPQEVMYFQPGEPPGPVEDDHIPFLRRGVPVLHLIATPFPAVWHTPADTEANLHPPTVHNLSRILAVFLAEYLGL
T2 sequence (Q9NXS2 48-382 I73N/C369A): as the sequence (Q9NXS2 48-382) above, with I26N, C322A counted along it
Chain of human QC (Q16769 29-361): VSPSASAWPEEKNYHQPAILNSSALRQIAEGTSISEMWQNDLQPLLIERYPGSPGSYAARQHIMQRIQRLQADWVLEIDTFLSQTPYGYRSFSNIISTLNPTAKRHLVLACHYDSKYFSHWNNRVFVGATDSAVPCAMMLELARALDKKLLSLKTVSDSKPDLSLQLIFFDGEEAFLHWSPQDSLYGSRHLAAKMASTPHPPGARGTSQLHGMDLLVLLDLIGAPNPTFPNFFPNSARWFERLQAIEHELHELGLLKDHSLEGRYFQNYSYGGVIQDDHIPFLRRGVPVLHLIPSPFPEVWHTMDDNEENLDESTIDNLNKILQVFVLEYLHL

Cc1cc(=O)oc2cc(NC(=O)[C@@H](N)CCC(N)=O)ccc12 [Q-AMC, H-Gln-AMC]
Km [1]: 0.01 ± 0.0009 mM
kcat (s^−1) hisoQCdt [1]: 1.07 ± 0.03 s⁻¹
Km [2]: 0.03 ± 0.0064 mM
kcat (s^−1) YSShisQC [2]: 3.72 ± 0.44 s⁻¹
Km [3]: 0.022 ± 0.001 mM
kcat (s^−1) m-isoQC [3]: 6.98 ± 0.35 s⁻¹

O=S(=O)([O-])[O-].[Zn+2] [ZnSO4]
reactivation of mouse-isoQC apoenzyme [4]: complete reactivation

O=C1NC(=O)N(c2ccc3[nH]cnc3c2)C1c1cccc(Cl)c1 (centres unmarked) [Example 12, 1-(1H-benzo[d]imidazol-5-yl)-5-(3-chlorophenyl)imidazolidine-2,4-dione]
IC50 [5]: 58 nM
Ki [5]: 10.5 nM

NC(=O)CC[C@H](N)C(=O)NCC(=O)O [QG] (H-Gln-Gly-OH)
Km [1]: 0.42 ± 0.04 mM
Km [2]: 0.36 ± 0.047 mM
Km [3]: 0.16 ± 0.01 mM

COc1ccc(C2C(=O)NC(=O)N2c2ccc3[nH]cnc3c2)cc1O (centres unmarked) [Example 9, 1-(1H-benzo[d]imidazol-5-yl)-5-(3-hydroxy-4-methoxyphenyl)imidazolidine-2,4-dione]
IC50 [5]: 30.3 nM
Ki [5]: 2.66 nM

O=C1NC(=O)N(c2ccc3[nH]cnc3c2)C1c1ccc(Cl)cc1 (centres unmarked) [Example 13, 1-(1H-benzo[d]imidazol-5-yl)-5-(4-chlorophenyl)imidazolidine-2,4-dione]
IC50 [5]: 52 nM
Ki [5]: 6.71 nM

O=C(O)c1cccc(C(=O)O)n1 [dipicolinic acid]
inactivation of human isoQC [6]: inactivated

Cn1ccnc1 [1-Methylimidazole]
Ki [7]: 39.7 ± 0.2 µM
Ki [8]: 80 ± 5 µM
Ki [5]: 82000 ± 3000 nM

C[C@H](NC(=O)[C@H](Cc1ccccc1)NC(=O)[C@@H](N)CCC(N)=O)C(=O)O [QFA] (H-Gln-Phe-Ala-OH)
Km [1]: 0.11 ± 0.016 mM
Km [2]: 0.104 ± 0.025 mM

CCCOc1ccc(C2C(=O)NC(=O)N2c2ccc3[nH]cnc3c2)cc1 (racemic) [Example 6, 1-(1H-benzo[d]imidazol-5-yl)-5-(4-propoxyphenyl)imidazolidine-2,4-dione]
infiltrating monocytes in the peritoneum (FACS) ([9]; 6 mg/kg ip): reduction
infiltrating monocytes in the peritoneum (FACS) ([9]; 18 mg/kg ip): reduced the infiltration of monocytes down to baseline values
pGlu-MCP-1 in lavage fluid ([9]; FIG. 25b, different doses): reduction of pGlu-content
infiltrating monocytes in the peritoneum (FACS) ([9]; different doses ip 30 min before thioglycollate, lavage 4 h after): dose-dependent reduction

O=C1NC(=O)C2(Cc3ccccc3C2)N1c1ccc2[nH]cnc2c1 [Example 32, 3-(1H-benzimidazol-5-yl)-1′,3′-dihydro-2H,5H-spiro[imidazolidine-4,2′-indene]-2,5-dione]
IC50 [5]: 166 nM
Ki [5]: 40.9 nM

O=C1NC(=O)N(c2ccc3[nH]cnc3c2)C1c1cc(F)ccc1Br (centres unmarked) [Example 5, 1-(1H-benzo[d]imidazol-5-yl)-5-(2-bromo-5-fluorophenyl)imidazolidine-2,4-dione]
IC50 [5]: 66 nM
Ki [5]: 8.27 nM

O=C1NC(=O)N(c2ccc3[nH]cnc3c2)C1c1cc(C(F)(F)F)ccc1F (centres unmarked) [Example 4, 1-(1H-benzo[d]imidazol-5-yl)-5-(2-fluoro-5-(trifluoromethyl)phenyl)imidazolidine-2,4-dione]
IC50 [5]: 150 nM
Ki [5]: 25.8 nM

O=C1NC(=S)C(c2ccc(Cl)cc2)N1c1ccc2[nH]cnc2c1 (centres unmarked) [Example 40, 1-(1H-benzo[d]imidazol-5-yl)-5-(4-chlorophenyl)-4-thioxoimidazolidin-2-one]
IC50 [5]: 58.3 nM
Ki [5]: 11.4 nM

O=C1NC(=O)N(c2ccc3[nH]cnc3c2)C1c1ccc2c(c1)OCCO2 (centres unmarked) [Example 16, 1-(1H-benzo[d]imidazol-5-yl)-5-(2,3-dihydrobenzo[b][1,4]dioxin-7-yl)imidazolidine-2,4-dione]
IC50 [5]: 57.6 nM
Ki [5]: 4.14 nM

COc1ccc(NC(=S)NCCCn2ccnc2)cc1OC.Cl [1-(3-(1H-imidazol-1-yl)propyl)-3-(3,4-dimethoxyphenyl)thiourea hydrochloride]
Ki [8]: 0.48 ± 0.03 µM
Ki ([8]; read-out: Ki-value, inhibition of human isoQC-catalyzed conversion of H-Gln-AMC into pGlu-AMC, FIG. 1, Michaelis-Menten model, linear competitive inhibition, inhibitor 0-5 μM): 0.24 µM
drop in Ki, human isoQC compared with human QC [10]: 10 fold

O=C1NC(=O)N(c2ccc3[nH]cnc3c2)C1c1ccc2nsnc2c1 (centres unmarked) [Example 1, 5-(benzo[c][1,2,5]thiadiazol-6-yl)-1-(1H-benzo[d]imidazol-5-yl)imidazolidine-2,4-dione]
IC50 [5]: 3.3 nM
Ki [5]: 1.62 nM

O=C1NC(=O)N(c2ccc3[nH]cnc3c2)C1c1ccccc1Cl (centres unmarked) [Example 14, 1-(1H-benzo[d]imidazol-5-yl)-5-(2-chlorophenyl)imidazolidine-2,4-dione]
IC50 [5]: 40 nM
Ki [5]: 3.07 nM

CC(C)C[C@H](NC(=O)[C@H](CC(=O)O)NC(=O)[C@H](CCC(=O)O)NC(=O)[C@@H](N)CCC(N)=O)C(=O)O [QEDL] (H-QEDL-OH)
Km [1]: 0.63 ± 0.052 mM
Km [2]: 0.16 ± 0.01 mM

c1cnc2c(c1)ccc1cccnc12 [1,10-phenantroline]
inactivation of human isoQC [6]: inactivated
inactivation of mouse-isoQC ([4]; dialysis against buffer containing 5 mM 1,10-phenantrolin and 5 mM EDTA): inactivation

manganese
reactivation of mouse-isoQC apoenzyme [4]: No reactivation

NC(=O)CC[C@H](NC(=O)[C@@H](N)CCC(N)=O)C(=O)O [QQ] (H-Gln-Gln-OH)
Km [1]: 0.11 ± 0.027 mM
Km [2]: 0.11 ± 0.007 mM

O=C1NC(=O)N(c2ccc3[nH]cnc3c2)C1c1ccc(F)cc1 (centres unmarked) [Example 15, 1-(1H-benzo[d]imidazol-5-yl)-5-(4-fluorophenyl)imidazolidine-2,4-dione]
IC50 [5]: 60 nM
Ki [5]: 12.3 nM

O=C(O)CN(CCN(CC(=O)O)CC(=O)O)CC(=O)O [EDTA]
inactivation of human isoQC [6]: inactivated

NC(=O)CC[C@H](N)C(=O)Nc1ccc2ccccc2c1 [Q-βNA, H-Gln-βNA]
Km [1]: 0.03 ± 0.002 mM
kcat (s^−1) hisoQCdt [1]: 3.37 ± 0.12 s⁻¹
Km [2]: 0.035 ± 0.0005 mM
kcat (s^−1) YSShisQC [2]: 8.16 ± 0.87 s⁻¹
Km [3]: 0.032 ± 0.003 mM
kcat (s^−1) m-isoQC [3]: 17.48 ± 0.97 s⁻¹

calcium
reactivation of mouse-isoQC apoenzyme [4]: No reactivation

c1ccc2[nH]cnc2c1 [Benzimidazole]
Ki ([7]; read-out: Ki (μM) hQC, competitive inhibition): 138 ± 4 µM
Ki [8]: 200 ± 8 µM
Ki [5]: 250000 ± 5000 nM

NC(=O)CC[C@H](N)C(=O)N[C@@H](CCC(=O)O)C(=O)O [QE] (H-Gln-Glu-OH)
Km [1]: 0.7 ± 0.13 mM
Km [2]: 0.61 ± 0.064 mM

O=C1NC(=O)N(c2ccc3[nH]cnc3c2)C1c1ccc(Cl)c(C(F)(F)F)c1 (centres unmarked) [Example 7, 1-(1H-benzo[d]imidazol-5-yl)-5-(4-chloro-3-(trifluoromethyl)phenyl)imidazolidine-2,4-dione]
IC50 [5]: 1400 nM
Ki [5]: 35.2 nM

O=C1NC(=S)C(c2ccc(F)c(F)c2F)N1c1ccc2nc[nH]c2c1 (centres unmarked) [Example 41, 1-(1H-benzo[d]imidazol-5-yl)-5-(2,3,4-trifluorophenyl)-4-thioxoimidazolidin-2-one]
IC50 [5]: 163 nM
Ki [5]: 34.5 nM

O=C1NC(=O)N(c2ccc3[nH]cnc3c2)C1c1ccccc1 (centres unmarked) [Example 2, 1-(1H-benzo[d]imidazol-5-yl)-5-phenylimidazolidine-2,4-dione]
IC50 [5]: 29.6 nM
Ki [5]: 16.4 nM
